Results as given in patent US11357873B2, “Chiral cyclen compounds and their uses” (THE HONG KONG POLYTECHNIC UNIVERSITY, priority 2016, dated 2022).
Marks after values point to notes of the source that are not given here. Blank lines part the entries; values can stand above or below the molecule they belong to.

Tests used:
[1] = Relaxivity (r1, r2) measurement of Gd(III) complexes in water, BSA and human plasma; type: physicochemical; set-up: r1 Human Plasma (1.5 T): unit not given beside the values; conditions: 37° C.
Description: This is very important because the huge difference in the inner-sphere coordinated water exchange rate between the two isomers is a key factor for applications, for example, as MRI contrast agents. To show their potential value, the two diastereomers of [GdL2]^− ([GdL2A]^− and [GdL2B]^−) were separated and their relaxivities were measured. The relaxivities of [GdL1]^−, [GdL2]^−, [GdL2A]^−, [GdL2B]^− and [GdDOTA]^− in water at different magnetic strengths (1.5 T and 11.7 T) were compared, with or without the presence of BSA and human plasma (1.5 T) (Table 1). It is clearly seen that the complexes of [GdL1]^−, [GdL2A]^− and [GdL2B]^− have relaxivity properties similar to that of the [GdDOTA]^− complex.

[2] = Kinetic inertness: competitive titration with DTPA, UPLC-HRMS; type: physicochemical; conditions: 1000 eq. of DTPA, pH 5.0, 0.1 M ammonium acetate, shaken 7 days; for decomplexation in presence of competitive ligand DTPA: room temperature
Description: Experimental procedure: Stock solution of [GdL1]^− and [GdL2]^− were prepared in 0.1 M ammonium acetate, 0˜1000 equivalents of DTPA were added into the solutions, the final concentrations of the gadolinium complexes were 14.8 mM for [GdL1]^− and 21.6 mM for [GdL2]^− (6 mL). The mixtures were shaken at room temperature, and samples of 1 ml of solutions were taken out for UPLC-HRMS analysis on day 3 and day 7.
Results: Competitive bath titrations were performed with the Gd analogues, [GdL1]^− and [GdL2]^−, in the presence of 0-1000 equivalents of competitive ligand DTPA (pentetic acid or diethylenetriaminepentaacetic acid) in 0.1 M ammonium acetate solution. After being shaken for 7 days (1000 eq. of DTPA, pH 5.0), the mixtures were analyzed by UPLC-HRMS. […] This finding is of significant importance for future use of the complexes in biomedical applications.

[3] = Absorption and photoluminescence (quantum yield, lifetime, q); type: physicochemical; set-up: λabs(max): unit not given here; conditions: for R, I(5D0 → 7F2)/I(5D0 → 7F1): asymmetry ratio, 10 in MeOH; for R, I(5D0 → 7F2)/I(5D0 → 7F1) / λabs(max): room temperature, 11 in DMSO; for ΦEuEu (%): intrinsic quantum yield, calculated value; for τD2O/MeOD / τH2O/MeOH: luminescence lifetime, 5D0 → 7F2 transition; for τD2O/MeOD: D2O (MeOD for 10); for τH2O/MeOH: H2O (MeOH for 10); for ΦDMSO (%): luminescence quantum yield in DMSO; for ΦH2O/MeOH (%): luminescence quantum yield relative to quinine sulfate in 0.1M H2SO4, H2O (MeOH for 10, insoluble in H2O); for λabs(max): 10 measured in MeOH; for ηsens (%): sensitization efficiency, calculated according to ref 61
Description: (§1) Absorption spectra of complexes were measured with HP UV-8453 spectrophotometer. Steady-state room temperature photoluminescence measurements were performed with an Edinburgh Instrument FLSP920 spectrophotometer equipped with a Xe900 continuous xenon lamp, μF920 microsecond flash lamp and a single photon counting photomultiplier tube. Spectra were corrected with the bundled F900 software. Solution-state measurements were conducted using quartz curettes of 10 mm path length. CPL measurements were conducted on a custom built spectrometer^63 (in Durham University) consisting of a laser driven light source (Energetiq EQ-99 LDLS, spectral range 170 to 2100 nm) coupled to an Acton SP2150 monochromator (600 g/nm, 300 nm Blaze) that allows excitation wavelengths to be selected with a 6 nm FWHM band-pass. The collection of the emitted light was facilitated (90° angle set up, 1 cm path length quartz curette) by a Lock-In Amplifier (Hinds Instruments Signaloc 2100) and Photoelastic Modulator (Hinds Instruments PEM-90). The differentiated light was focused onto an Acton SP2150 monochromator (1200 g/nm, 500 nm Blaze) equipped with a high sensitivity cooled Photo Multiplier Tube (H10723-20 Extended red-multialkali PMT based photosensor (5V)). Spectra were recorded using a 5 spectral average sequence in the range of 570-720 nm with 0.5 nm spectral intervals and 500 μs integration time. The recorded CPL spectrum underwent a 25% Fourier transformation smoothening protocol using Origin 8.0 Software (Origin Labs) to enhance appearance (all calculations were carried out using raw spectral data).
The shift in absorption is caused by electronic communication between the electropositive lanthanide center and the chromophore. […] These are not observed for 11, however, as we believe the steric effect of the planar phenyl ring of the benzyl group could not be alleviated by appropriate rotation, whereas that of the isobutyl group could.
The luminescence quantum yields of the complexes are decent in water and HEPES solution, although they are much higher in DMSO, due to the nonradiative quenching by O—H oscillators of water molecules in the second coordination sphere (Table 6). The intrinsic quantum yields^61—a calculated value evaluating the quantum yield of Eu(III) via direct metal excitation—of the complexes are calculated, and, as expected, the values are very similar, except for 10. The higher value corroborates with the shift in absorption maximum, for which we believe the reason is due to a shorter europium—chromophore distance and better interaction. On the other hand, the sensitization efficiencies of the complexes vary. […] The relatively remarkable ηsens of 13 is attributed to its structural rigidity, as both the tetraaza backbone and the acetate arms are modified with a chrial substituent, i.e., double chirality. The double chirality is also attributed for the increase in luminescence quantum yield compared to that of 12a/12b.

[4] = Circularly polarized luminescence (CPL), dissymmetry factor glum; type: physicochemical; conditions: wavelength in parentheses in the cell
Description: as §1, with “Steady-state” for “Absorption spectra of complexes were measured with HP UV-8453 spectrophotometer. Steady-state”, “time.” for “time. The recorded CPL spectrum underwent a 25% Fourier transformation smoothening protocol using Origin 8.0 Software (Origin Labs) to enhance appearance (all calculations were carried out using raw spectral data).”

[5] = Water solubility of complexes; type: physicochemical
BSA = BSA (Bos taurus, UniProt P02769); test: Protein binding with BSA determined by ICP-MS; type: in vitro ADME
Chain of BSA (P02769 25-607): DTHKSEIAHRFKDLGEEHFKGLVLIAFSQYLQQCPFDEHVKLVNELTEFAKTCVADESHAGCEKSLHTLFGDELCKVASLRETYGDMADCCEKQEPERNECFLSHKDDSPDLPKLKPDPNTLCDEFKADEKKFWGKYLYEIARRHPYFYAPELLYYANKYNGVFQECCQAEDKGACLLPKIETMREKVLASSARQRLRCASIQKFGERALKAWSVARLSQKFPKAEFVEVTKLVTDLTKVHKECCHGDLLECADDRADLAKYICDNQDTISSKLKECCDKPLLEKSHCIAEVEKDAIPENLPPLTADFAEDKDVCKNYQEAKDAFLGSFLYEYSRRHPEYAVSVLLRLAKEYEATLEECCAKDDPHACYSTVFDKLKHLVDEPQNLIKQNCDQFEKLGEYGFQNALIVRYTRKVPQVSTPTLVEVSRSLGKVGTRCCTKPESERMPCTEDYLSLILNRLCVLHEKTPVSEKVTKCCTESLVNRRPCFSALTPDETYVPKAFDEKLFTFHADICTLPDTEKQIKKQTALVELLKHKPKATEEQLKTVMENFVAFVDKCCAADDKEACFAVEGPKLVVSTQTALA

human plasma = test: Protein binding with human plasma determined by ICP-MS; type: in vitro ADME
[6] = Stability of isomers on heating and storage by 1H NMR; type: physicochemical
Source text: In aqueous solution, the ratio of TSA/SA isomers of Eu(III) and Yb(III) complexes in DOTA-like systems can be easily determined by ^1H NMR as two well-defined sets of six resonances are observed for the diastereotopic protons in CH2CO and NCH2CH2N.^13 Although the Gd(III) complexes cannot be analyzed by NMR, their ratio of isomers are expected to be similar to those of the Eu(III) and Yb(III) complexes because the ionic radius of Gd(III) is similar to the ionic radius of Eu(III) and Yb(III).
The conformational properties of the lanthanide complexes were investigated by both HPLC and NMR spectroscopy. The ^1H NMR spectra of the four europium chiral DOTA-based complexes are compared in FIG. 3. […] In the cases of [EuL3]^− and [EuL4]^−, the twisted antiprismatic isomers were more dominant, with the ratio of 6.52 for [EuL3]^− and 13.50 for [EuL4]^− observed.
The stability of the complexes toward racemization over time was also monitored by ^1H NMR (FIG. 20). […] Nevertheless, the original set of peaks existed predominately when the pD was adjusted from 6.0 to 7.5 and further heated for 12 h at 90° C. It can be observed that while the purity of the ligands may not be highly satisfactory, pure complexes could be obtained by HPLC separation after complexation. This phenomenon indicates the purification of DOTA-based ligands should be handled with care.

[7] = ICP-MS, summary of Tables 2 and 3
[8] = Table 2, sample A, conc. before 0.32286251 mM
[9] = Table 2, sample B, conc. before 0.15917209 mM
[10] = Table 2, sample C, conc. before 0.02070731 mM
[11] = Table 3, sample A, conc. before 0.3714242 mM
[12] = Table 3, sample B, conc. before 0.1551093 mM
[13] = Table 3, sample C, conc. before 0.0251512 mM
[14] = Table 2, sample A, conc. before 0.3167862 mM
[15] = Table 2, sample B, conc. before 0.162104 mM
[16] = Table 2, sample C, conc. before 0.021152 mM
[17] = Table 3, sample A, conc. before 0.3699171 mM
[18] = Table 3, sample B, conc. before 0.134016 mM
[19] = Table 3, sample C, conc. before 0.0189002 mM

SMILES: COc1cc(OC)c(C#Cc2cc(CN3C[C@H](CC(C)C)N(CC(=O)[O-])C[C@H](CC(C)C)N(CC(=O)[O-])C[C@H](CC(C)C)N(CC(=O)[O-])C[C@@H]3CC(C)C)nc(P(C)(=O)[O-])c2)c(OC)c1.[Eu+3] [Complex 10]
R, I(5D0 → 7F2)/I(5D0 → 7F1) [3]: 3.01
q (calculated from ref 60) ([3]; from lifetimes in MeOH and MeOD): 0.05^g
ΦEuEu (%) [3]: 36.9%
τD2O/MeOD [3]: 1.74 ms
τH2O/MeOH [3]: 1.39 ms
ΦDMSO (%) [3]: 45.3%
ΦH2O/MeOH (%) [3]: 11.1%
λabs(max) [3]: 364
ηsens (%) [3]: 30.1%
glum ΔJ = 1 (λ) DMSO [4]: −0.11 (591)
glum ΔJ = 3 (λ) DMSO [4]: −0.12 (657)
water solubility [5]: poor water solubility

SMILES: C[C@H]1CN(CC(=O)[O-])[C@@H](C)CN(CC(=O)[O-])[C@@H](C)CN(CC(=O)[O-])[C@@H](C)CN1CC(=O)[O-].[Gd+3] [[GdL1]^−]
complex binding with BSA (BSA; [7]): less than 5%
% bound In BSA (BSA; [8]): (1.3% bound)
Conc. (mM) In BSA after (BSA; [8]): 0.3185 mM
% bound In BSA (BSA; [9]): (1.5% bound)
Conc. (mM) In BSA after (BSA; [9]): 0.1568 mM
% bound In BSA (BSA; [10]): (3.7% bound)
Conc. (mM) In BSA after (BSA; [10]): 0.02 mM
% bound In BSA (BSA; [11]): (1.9% bound)
Conc. (mM) In BSA after (BSA; [11]): 0.3641 mM
% bound In BSA (BSA; [12]): (3.4% bound)
Conc. (mM) In BSA after (BSA; [12]): 0.1498 mM
% bound In BSA (BSA; [13]): (2.2% bound)
Conc. (mM) In BSA after (BSA; [13]): 0.02458 mM
r1 4.5 w/v BSA (1.5 T) [1]: 4.1
r1 Human Plasma (1.5 T) [1]: 3.9
r1 Water (1.5 T) [1]: 3.4
r1 Water (11.7 T) [1]: 2.8
ratio of TSA/SA after DTPA challenge [2]: remained the same
decomplexation in presence of competitive ligand DTPA [2]: No trace of any decomplexation
complex binding with human plasma (human plasma; [7]): less than 5%
% bound In Plasma (human plasma; [14]): (2.2% bound)
Conc. (mM) In Plasma after (human plasma; [14]): 0.3097 mM
% bound In Plasma (human plasma; [15]): (1.8% bound)
Conc. (mM) In Plasma after (human plasma; [15]): 0.1592 mM
% bound In Plasma (human plasma; [16]): (4.7% bound)
Conc. (mM) In Plasma after (human plasma; [16]): 0.02015 mM
% bound In Plasma (human plasma; [17]): (2.6% bound)
Conc. (mM) In Plasma after (human plasma; [17]): 0.3602 mM
% bound In Plasma (human plasma; [18]): (2.2% bound)
Conc. (mM) In Plasma after (human plasma; [18]): 0.1311 mM
% bound In Plasma (human plasma; [19]): (3.9% bound)
Conc. (mM) In Plasma after (human plasma; [19]): 0.01816 mM

SMILES: CC[C@@H]1CN(CC(=O)[O-])[C@H](CC)CN(Cc2cc(C#Cc3c(OC)cc(OC)cc3OC)cc(P(C)(=O)[O-])n2)[C@H](CC)CN(CC(=O)[O-])[C@H](CC)CN1CC(=O)[O-].[Eu+3] [Complex 9]
R, I(5D0 → 7F2)/I(5D0 → 7F1) [3]: 2.44
q (Parker's) ([3]; from lifetimes in H2O and D2O, first value of cell): 0.02
q (Horrocks') ([3]; from lifetimes in H2O and D2O, second value of cell): 0.05
ΦEuEu (%) [3]: 28.1%
τD2O/MeOD [3]: 1.77 ms
τH2O/MeOH [3]: 1.20 ms
ΦDMSO (%) [3]: 53.0%
ΦH2O/MeOH (%) [3]: 14.9%
ΦHEPES (%) ([3]; luminescence quantum yield, 0.1M HEPES buffer, pH 7.4): 14.3%
λabs(max) [3]: 356
ηsens (%) [3]: 53.0%
glum ΔJ = 1 (λ) DMSO [4]: +0.17 (591)
glum ΔJ = 3 (λ) DMSO [4]: +0.13 (657)
glum ΔJ = 1 (λ) H2O ([4]; H2O): +0.12 (591)
glum ΔJ = 3 (λ) H2O ([4]; H2O): +0.21 (653)
1H NMR spectrum after storage (stability toward racemization) ([6]; 9 months at room temperature, pD 6.0, D2O): consistent after 9 months of storage
1H NMR spectrum upon heating (stability toward racemization) ([6]; heating at 90° C.): a new set of peaks appeared

Continued, in another order:

ratio of TSA/SA after DTPA challenge [2]: remained the same
decomplexation in presence of competitive ligand DTPA [2]: No trace of any decomplexation
SMILES: CC[C@H]1CN(CC(=O)[O-])[C@@H](CC)CN(CC(=O)[O-])[C@@H](CC)CN(CC(=O)[O-])[C@@H](CC)CN1CC(=O)[O-].[Gd+3] [[GdL2]^−]
r1 4.5 w/v BSA (1.5 T) [1]: 3.6
r1 Human Plasma (1.5 T) [1]: 2.9
r1 Water (1.5 T) [1]: 2.6
r1 Water (11.7 T) [1]: 3.1

isomer ratio after heating (lack of racemization) ([6]; solution of [EuL2A]− and [EuL2B]− at 1:0.25, 90° C. for 3 days): remained at the same ratio
SMILES: CC[C@H]1CN(CC(=O)[O-])[C@@H](CC)CN(CC(=O)[O-])[C@@H](CC)CN(CC(=O)[O-])[C@@H](CC)CN1CC(=O)[O-].[Eu+3] (single isomer, unassigned) [[EuL2A]^−]
